Data set [1] in a line: Dissociation constant, pKa of the compound. Type of data set: physicochemical.
Data set [2] is described as follows: Unbound fraction in plasma (unknown origin) under normal atmospheric condition at pH 7.22 after 6 hrs by equilibrium dialysis method. It is filed as ADME, cell-free.
The nature of data set [3]: Unbound fraction in plasma (unknown origin) at pH 7.4 after 6 hrs by equilibrium dialysis method in presence of 5% CO2. Type of data set: ADME, cell-free. In general terms: In equilibrium dialysis only unbound substance equilibrates across the membrane.
Data set [4] in a line: Unbound fraction in plasma (unknown origin) at pH 7.63 after 6 hrs by equilibrium dialysis method in presence of 5% CO2. It is filed as ADME, cell-free.
Data set [5] is described as follows: Unbound fraction in plasma (unknown origin) under normal atmospheric condition at pH 7.72 after 6 hrs by equilibrium dialysis method. Type of data set: ADME, cell-free.
The nature of data set [6]: Drug recovery in plasma (unknown origin). Type of data set: ADME, cell-free.

The pKa is the pH at which an ionisable group is half protonated. Low values mean a stronger acid or weaker base, high ones a weaker acid or stronger base. As a reminder, the fraction unbound is free concentration divided by total concentration.

Take `CCN(CC)C(=O)C1(c2ccccc2)CC1CN` (stereo not given): in data set [1], the pKa came out at 9.7. Besides, the fraction unbound at 6 h in data set [2] was determined as 0.809; in data set [3], 0.837; in data set [4], 0.777; in data set [5] it was 0.828. The Compound recovery in data set [6] is recorded as above 70%.

As to `COc1ccc(CCN(C)CCCC(C#N)(c2ccc(OC)c(OC)c2)C(C)C)cc1OC` (stereo not given), the Compound recovery in data set [6] is above 70%.

For `N[C@@H]1C[C@H]1c1ccccc1.N[C@H]1C[C@@H]1c1ccccc1` (racemic) [TRANYLCYPROMINE], the pKa in data set [1] was determined as 8.2. For the same compound, the fraction unbound at 6 h was found to be 0.63 in data set [2], 0.612 in data set [3], 0.53 in data set [4] and 0.49 in data set [5]. Besides, the Compound recovery in data set [6] is on record as above 70%.

In data set [1], `O=C1CC2(CCCC2)CC(=O)N1CCCCN1CCN(c2ncccn2)CC1` [BUSPIRONE] returned a pKa of 7.3. The compound also displayed a Compound recovery in data set [6] above 70%.

Take `NC(=O)N1c2ccccc2C=Cc2ccccc21` [CARBAMAZEPINE]: the fraction unbound at 6 h is 0.303 in data set [2], 0.291 in data set [3], 0.288 in data set [4] and 0.299 in data set [5]. Also, in data set [6], the Compound recovery is above 70%.

Take `CCn1nc(C(=O)O)c(=O)c2cc3c(cc21)OCO3` [CINOXACIN]: in data set [1], the pKa worked out at 4.7. Further, the fraction unbound at 6 h came to 0.251 in data set [2], 0.214 in data set [3], 0.23 in data set [4] and 0.266 in data set [5]. In data set [6], the Compound recovery is recorded as above 70%.

On to `CN1CCN(C2=Nc3cc(Cl)ccc3Nc3ccccc32)CC1` [CLOZAPINE], for which the fraction unbound at 6 h in data set [2] is 0.101; in data set [3] it was 0.081; in data set [4] it was 0.058; in data set [5] it was 0.042. Moreover, in data set [6], the Compound recovery is above 70%.

For `CN1C(=O)CN=C(c2ccccc2)c2cc(Cl)ccc21` [DIAZEPAM], the Compound recovery in data set [6] is above 70%.

As for `O=C(O)Cc1ccccc1Nc1c(Cl)cccc1Cl` [DICLOFENAC], the Compound recovery in data set [6] is above 70%.

The compound `COc1ccc([C@@H]2Sc3ccccc3N(CCN(C)C)C(=O)[C@@H]2OC(C)=O)cc1` [DILTIAZEM] gave a pKa in data set [1] of 8. Besides, the fraction unbound at 6 h in data set [2] came out at 0.417; in data set [3], 0.349; in data set [4], 0.35; in data set [5], 0.298. In data set [6], this compound returned a Compound recovery above 70%.

In the case of `CNCCC(Oc1ccc(C(F)(F)F)cc1)c1ccccc1` (stereo not given) [FLUOXETINE], the fraction unbound at 6 h in data set [2] worked out at 0.079; in data set [3], 0.056; in data set [4] it was 0.063; in data set [5], 0.04. Also, the Compound recovery in data set [6] was above 70%.

Consider `O=C(CCCN1CCC(O)(c2ccc(Cl)cc2)CC1)c1ccc(F)cc1` [HALOPERIDOL], for which the fraction unbound at 6 h in data set [2] worked out at 0.223; in data set [3], 0.161; in data set [4], 0.164; in data set [5], 0.124. This compound also displayed a Compound recovery in data set [6] above 70%.

For `CN(C)CCCN1c2ccccc2CCc2ccccc21` [IMIPRAMINE], the fraction unbound at 6 h in data set [2] was found to be 0.22; in data set [3], 0.181; in data set [4], 0.172; in data set [5] it was 0.105. Moreover, in data set [6], the Compound recovery is above 70%.

Take `Cc1ncc2n1-c1ccc(Cl)cc1C(c1ccccc1F)=NC2` [MIDAZOLAM]: the pKa in data set [1] was 9. The fraction unbound at 6 h in data set [2] was found to be 0.034; in data set [3], 0.036; in data set [4], 0.041; in data set [5], 0.019. Besides, in data set [6], the Compound recovery is recorded as 63%.

Take `CN1CCN2c3ncccc3Cc3ccccc3C2C1` (stereo not given) [MIRTAZAPINE]: the fraction unbound at 6 h came out at 0.32 in data set [2], 0.286 in data set [3], 0.266 in data set [4] and 0.16 in data set [5]. For the same compound, the Compound recovery in data set [6] was above 70%.

Compound `COC(=O)C1=C(C)NC(C)=C(C(=O)OCCN(C)Cc2ccccc2)C1c1cccc([N+](=O)[O-])c1` (stereo not given) [NICARDIPINE] had a pKa in data set [1] of 7.2. In addition, the unbound share (fraction unbound) at 6 h in data set [2] turned out to be 0.008; in data set [3] it was 0.005; in data set [4], 0.008; in data set [5], 0.003. In data set [6], this compound displayed a Compound recovery above 70%.

In data set [1], `Fc1ccc([C@@H]2CCNC[C@H]2COc2ccc3c(c2)OCO3)cc1` [PAROXETINE] gave a pKa of 9.5. The fraction unbound at 6 h in data set [2] was 0.136; in data set [3] it was 0.099; in data set [4], 0.089; in data set [5], 0.074. The compound further yielded a Compound recovery in data set [6] above 70%.

With `CC(C)NCC(O)COc1cccc2ccccc12` (stereo not given) [PROPRANOLOL], the fraction unbound at 6 h amounted to 0.315 in data set [2], 0.231 in data set [3], 0.213 in data set [4] and 0.216 in data set [5]. In data set [6], the Compound recovery is above 70%.

As to `C=C[C@H]1C[N@@]2CC[C@H]1C[C@@H]2[C@@H](O)c1ccnc2ccc(OC)cc12` [QUINIDINE], in data set [6], the Compound recovery is given as above 70%.

As for `Cc1nc2n(c(=O)c1CCN1CCC(c3noc4cc(F)ccc34)CC1)CCCC2` [RISPERIDONE], the fraction unbound at 6 h came out at 0.276 in data set [2], 0.186 in data set [3], 0.222 in data set [4] and 0.163 in data set [5]. Further, in data set [6], the Compound recovery is above 70%.

Turning to `CC(CN(C)C)CN1c2ccccc2CCc2ccccc21` (stereo not given) [TRIMIPRAMINE], the pKa in data set [1] came out at 8.4. The fraction unbound at 6 h in data set [2] was 0.106; in data set [3], 0.054; in data set [4], 0.052; in data set [5], 0.037. Further, in data set [6], the Compound recovery was above 70%.

`CC(=O)CC(c1ccccc1)c1c(O)c2ccccc2oc1=O` (stereo not given) [WARFARIN] registered a Compound recovery in data set [6] above 70%.

For the origin of these results see ChEMBL document CHEMBL3526113, “Control and measurement of plasma pH in equilibrium dialysis: influence on drug plasma protein binding” (Drug Metab Dispos, 2011).
